Values quoted from earlier work, collected in PubChem BioAssay AID1259409 (Chemical Carcinogenesis Research Information System (CCRIS), 2018).

Tested on: rodent chemically induced tumor inhibition, incidence and multiplicity
Experiment: CCRIS tumor inhibitor studies
Settings: Dose [Inhibitor]: 0, Route [Inhibitor]: ORAL, Promoter: NONE USED

## CC1=C(/C=C/C(C)=C/C=C/C(C)=C/C=C/C=C(C)/C=C/C=C(C)/C=C/C2=C(C)CCCC2(C)C)C(C)(C)CCC1
Carcinogen: N-ETHYL-N'-NITRO-N-NITROSOGUANIDINE, 4245-77-6, 0.005% PALM CAROTENE IN DRINKING WATER FOR 16 WK BEGINNING POST CARCINOGEN TREATMENT (STUDY DURATION: 20 WK), Species: MOUSE, Strain/Sex: C57BL/MALE, Target Tissue: Type of Lesion: DUODENUM: TUMOR, Dose [Carcinogen]: 100 MG/L IN DRINKING WATER FOR 4 WK
  tumour outcome (control, treated, inhibition, significance): 18/27 (67%), 8/16 (50%), 25%, not significant
Carcinogen: N-ETHYL-N'-NITRO-N-NITROSOGUANIDINE, 4245-77-6, 0.05% PALM CAROTENE IN DRINKING WATER FOR 16 WK BEGINNING POST CARCINOGEN TREATMENT (STUDY DURATION: 20 WK), Species: MOUSE, Strain/Sex: C57BL/MALE, Target Tissue: Type of Lesion: DUODENUM: TUMOR, Dose [Carcinogen]: 100 MG/L IN DRINKING WATER FOR 4 WK
  tumour outcome (control, treated, inhibition, significance): 18/27 (67%), 11/28 (39%), 42%, p<0.05
Carcinogen: N-METHYL-N'-NITRO-N-NITROSOGUANIDINE, 70-25-7, 0.4% IN DIET FOR 2 WK PRIOR TO FIRST CARCINOGEN DOSE FOLLOWED BY 0, 0.2% IN DIET FOR 25 WK (STUDY DURATION: 27 WK), 0.4% IN DIET FOR 2 WK PRIOR TO FIRST CARCINOGEN DOSE FOLLOWED BY 0, 0.2% IN DIET FOR 25 WK (STUDY DURATION: 27 WK), Species: RAT, Strain/Sex: WISTAR/MALE, Target Tissue: Type of Lesion: COLON: ADENOCARCINOMA, Dose [Carcinogen]: 0.15 ML OF A 13.4 MG/ML SOLUTION IN DISTILLED WATER 2/WK FOR 3 WK
  tumour outcome (control, treated, inhibition, significance): 34/36 (94%), 34/35 (97%), -3%, not calculated
Carcinogen: N-METHYL-N'-NITRO-N-NITROSOGUANIDINE, 70-25-7, 0.4% IN DIET FOR 2 WK PRIOR TO FIRST CARCINOGEN DOSE FOLLOWED BY 0, 0.2% IN DIET FOR 25 WK (STUDY DURATION: 27 WK), 0.4% IN DIET FOR 2 WK PRIOR TO FIRST CARCINOGEN DOSE FOLLOWED BY 0, 0.2% IN DIET FOR 25 WK (STUDY DURATION: 27 WK), Species: RAT, Strain/Sex: WISTAR/MALE, Target Tissue: Type of Lesion: COLON: ADENOMA, Dose [Carcinogen]: 0.15 ML OF A 13.4 MG/ML SOLUTION IN DISTILLED WATER 2/WK FOR 3 WK
  tumour outcome (control, treated, inhibition, significance): 17/36 (47%), 24/35 (69%), -47%, not calculated
Carcinogen: N-METHYL-N'-NITRO-N-NITROSOGUANIDINE, 70-25-7, 0.4% IN DIET FOR 2 WK PRIOR TO FIRST CARCINOGEN DOSE FOLLOWED BY 0, 0.2% IN DIET FOR 52 WK (STUDY DURATION: 54 WK), 0.4% IN DIET FOR 2 WK PRIOR TO FIRST CARCINOGEN DOSE FOLLOWED BY 0, 0.2% IN DIET FOR 52 WK (STUDY DURATION: 54 WK), Species: RAT, Strain/Sex: WISTAR/MALE, Target Tissue: Type of Lesion: GLANDULAR STOMACH: ADENOCARCINOMA, Dose [Carcinogen]: 80 UG/ML IN DRINKING WATER FOR 52 WK
  tumour outcome (control, treated, inhibition, significance): 7/36 (19%), 4/35 (11%), 42%, not calculated
Carcinogen: N-METHYL-N'-NITRO-N-NITROSOGUANIDINE, 70-25-7, 0.4% IN DIET FOR 2 WK PRIOR TO FIRST CARCINOGEN DOSE FOLLOWED BY 0, 0.2% IN DIET FOR 52 WK (STUDY DURATION: 54 WK), 0.4% IN DIET FOR 2 WK PRIOR TO FIRST CARCINOGEN DOSE FOLLOWED BY 0, 0.2% IN DIET FOR 52 WK (STUDY DURATION: 54 WK), Species: RAT, Strain/Sex: WISTAR/MALE, Target Tissue: Type of Lesion: GLANDULAR STOMACH: LEIOMYOSARCOMA, Dose [Carcinogen]: 80 UG/ML IN DRINKING WATER FOR 52 WK
  outcome: 0/36 (0%), 2/35 (6%), -600%, not calculated
Carcinogen: N-METHYL-N'-NITRO-N-NITROSOGUANIDINE, 70-25-7, 0.4% IN DIET FOR 2 WK PRIOR TO FIRST CARCINOGEN DOSE FOLLOWED BY 0, 0.2% IN DIET FOR 52 WK (STUDY DURATION: 54 WK), 0.4% IN DIET FOR 2 WK PRIOR TO FIRST CARCINOGEN DOSE FOLLOWED BY 0, 0.2% IN DIET FOR 52 WK (STUDY DURATION: 54 WK), Species: RAT, Strain/Sex: WISTAR/MALE, Target Tissue: Type of Lesion: SMALL INTESTINE: ADENOCARCINOMA, Dose [Carcinogen]: 80 UG/ML IN DRINKING WATER FOR 52 WK
  tumour outcome (control, treated, inhibition, significance): 10/36 (28%), 17/35 (49%), -75%, p= 0.12
Carcinogen: N-METHYL-N'-NITRO-N-NITROSOGUANIDINE, 70-25-7, 0.4% IN DIET FOR 2 WK PRIOR TO FIRST CARCINOGEN DOSE FOLLOWED BY 0, 0.2% IN DIET FOR 52 WK (STUDY DURATION: 54 WK), 0.4% IN DIET FOR 2 WK PRIOR TO FIRST CARCINOGEN DOSE FOLLOWED BY 0, 0.2% IN DIET FOR 52 WK (STUDY DURATION: 54 WK), Species: RAT, Strain/Sex: WISTAR/MALE, Target Tissue: Type of Lesion: SMALL INTESTINE: ADENOMA, Dose [Carcinogen]: 80 UG/ML IN DRINKING WATER FOR 52 WK
  tumour outcome (control, treated, inhibition, significance): 1/36 (3%), 0/35 (0%), 100%, not calculated
Carcinogen: N-METHYL-N'-NITRO-N-NITROSOGUANIDINE, 70-25-7, 0.4% IN DIET FOR 2 WK PRIOR TO FIRST CARCINOGEN DOSE FOLLOWED BY 0, 0.2% IN DIET FOR 52 WK (STUDY DURATION: 54 WK), 0.4% IN DIET FOR 2 WK PRIOR TO FIRST CARCINOGEN DOSE FOLLOWED BY 0, 0.2% IN DIET FOR 52 WK (STUDY DURATION: 54 WK), Species: RAT, Strain/Sex: WISTAR/MALE, Target Tissue: Type of Lesion: SMALL INTESTINE: ANGIOSARCOMA, Dose [Carcinogen]: 80 UG/ML IN DRINKING WATER FOR 52 WK
  tumour outcome (control, treated, inhibition, significance): 3/36 (8%), 6/35 (17%), -113%, not calculated
